Test [1] deals with T1, recombinant N-terminal GST-tagged human Rho kinase 2 (ROCK2, amino acids 1-552) (Homo sapiens, UniProt O75116).
T1 construct: ROCK2, amino acids 1-552, Invitrogen Inc., cat #PV3759; GST (N); purchased Invitrogen Inc. PV3759
The experiment in a line: In vitro Rho kinase assay (luciferase-based ATP consumption), ROCK2. It is filed as biochemical. The procedure:
(§1) Rho kinase biochemical assays described below depend on firefly luciferase-based, indirect measurement of total ATP consumption by the kinase following incubation with substrate and ATP. 25 μl of Rho kinase assay buffer (20 mM Tris-HCL [pH 7.5], 1 mM MgCl2, 0.4 mM CaCl2, 0.15 mM EGTA, 0.1 mg/ml bovine serum albumin) containing 0.82 μg/ml of recombinant N-terminal GST-tagged human Rho kinase 1 (ROCK1, amino acids 1-535, Invitrogen Inc., cat. #PV-3691) or recombinant N-terminal GST-tagged human Rho kinase 2 (ROCK2, amino acids 1-552, Invitrogen Inc., cat #PV3759), 100 μg/ml S6 peptide substrate (related to amino acids 218-249 of the human 40S ribosomal protein S6, and suitable for ROCK1 or ROCK2, e.g. Upstate/Millipore Inc., cat #12-420), and 3 µM ATP are dispensed to wells of a 384 multi-well opaque plate. The plate is centrifuged for 30 seconds at approximately 200×g. 240 nl of test compound in DMSO is dispensed to each well by passive pin transfer. The lag phase of this in vitro kinase reaction permits addition of compounds soon after the reaction initiates. The reaction is allowed to incubate at 30° C. for 2 hours. The assay plates are sealed and maintained in a humidified environment. After 2 hours, 25 μl of easyLite protein kinase assay reagent (Perkin-Elmer, Inc.) is dispensed. After an additional 10 minute incubation at room temperature (about 22° C.), luminescence activity is measured on a Molecular Devices Analyst multi-mode plate reader or other suitable plate reader. Kinase inhibition results in less ATP consumption, and therefore increased luminescence signal. Negative control activity is measured with DMSO lacking any test compound. The positive control is 2-methyl-1-(4-methylisoquinolin-5-ylsulfonyl)perhydro-1,4-diazepine hydrochloride (aka H-1152P, HCl salt). Efficacy is measured as a percentage of positive control activity. […] In some cases, kinase reactions and compound testing are performed in 1536 multi-well plates under similar conditions, with assay volumes appropriately scaled. The designated NT means the cited example was not tested.

Test [2] has as its target T2, recombinant N-terminal GST-tagged human Rho kinase 1 (ROCK1, amino acids 1-535) (Homo sapiens, UniProt Q13464).
T2 construct: ROCK1, amino acids 1-535, Invitrogen Inc., cat. #PV-3691; GST (N); purchased Invitrogen Inc. PV-3691
The experiment in a line: In vitro Rho kinase assay (luciferase-based ATP consumption), ROCK1. The format is biochemical. The procedure:
as §1

pIC50: −log10 of the molar value.

T2 sequence (Q13464 1-535): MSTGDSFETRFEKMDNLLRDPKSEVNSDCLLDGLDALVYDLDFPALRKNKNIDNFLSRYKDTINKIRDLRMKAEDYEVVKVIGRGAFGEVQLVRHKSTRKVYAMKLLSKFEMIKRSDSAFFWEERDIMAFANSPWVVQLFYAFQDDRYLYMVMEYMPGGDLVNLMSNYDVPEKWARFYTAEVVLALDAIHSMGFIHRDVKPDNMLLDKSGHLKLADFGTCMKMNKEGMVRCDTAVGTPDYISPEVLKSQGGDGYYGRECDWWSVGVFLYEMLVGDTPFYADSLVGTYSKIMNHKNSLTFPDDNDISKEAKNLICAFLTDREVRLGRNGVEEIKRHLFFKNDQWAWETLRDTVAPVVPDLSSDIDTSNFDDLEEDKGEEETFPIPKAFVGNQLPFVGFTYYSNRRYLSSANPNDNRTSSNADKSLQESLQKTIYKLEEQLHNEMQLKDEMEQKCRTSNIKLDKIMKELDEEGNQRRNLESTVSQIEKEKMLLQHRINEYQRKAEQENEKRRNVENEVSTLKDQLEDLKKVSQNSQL
T1 sequence (O75116 1-552): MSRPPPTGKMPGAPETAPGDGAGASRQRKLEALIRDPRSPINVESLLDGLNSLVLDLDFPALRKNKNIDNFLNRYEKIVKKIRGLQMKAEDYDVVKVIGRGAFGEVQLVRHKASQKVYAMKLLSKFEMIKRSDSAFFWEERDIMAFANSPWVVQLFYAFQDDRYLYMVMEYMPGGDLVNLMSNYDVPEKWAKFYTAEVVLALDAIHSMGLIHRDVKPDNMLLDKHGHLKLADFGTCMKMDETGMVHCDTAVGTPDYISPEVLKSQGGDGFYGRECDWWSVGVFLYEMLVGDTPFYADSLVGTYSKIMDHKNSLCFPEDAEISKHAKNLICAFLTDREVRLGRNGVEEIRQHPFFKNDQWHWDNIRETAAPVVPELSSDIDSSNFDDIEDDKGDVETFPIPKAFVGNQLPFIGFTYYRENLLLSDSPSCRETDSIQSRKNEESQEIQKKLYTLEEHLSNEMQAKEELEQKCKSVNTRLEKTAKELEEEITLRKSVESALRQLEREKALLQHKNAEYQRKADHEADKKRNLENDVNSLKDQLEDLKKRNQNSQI

As for `CC(C)c1cccc(C(=O)NCc2nc(-c3ccncc3)n[nH]2)c1O` [Example 41, 2-Hydroxy-3-isopropyl-N-((3-(pyridin-4-yl)-1H-1,2,4-triazol-5-yl)methyl)benzamide], the pIC50 in test [1] and in test [2] was > 5.30 throughout.

For the molecule `NC(=O)c1cc(-c2ccncc2)n[nH]1` [Example 11, 3-(pyridin-4-yl)-1H-pyrazole-5-carboxamide], the pIC50 in test [1] and in test [2] was < 5.30 in each case.

Take `CS(=O)(=O)Nc1cccc(C(=O)NCc2nc(-c3c[nH]c4ncccc34)n[nH]2)c1` [Example 72, N-((3-(1H-pyrrolo[2,3-b]pyridin-3-yl)-1H-1,2,4-triazol-5-yl)methyl)-3-(methylsulfonamido)benzamide]: the pIC50 in test [1] and in test [2] was > 5.30 each time.

Regarding `COc1ccc(C(=O)NCc2nc(-c3ccncc3)n[nH]2)cc1C` [Example 40, 4-Methoxy-3-methyl-N-((3-(pyridin-4-yl)-1H-1,2,4-triazol-5-yl)methyl)benzamide], the pIC50 in test [1] and in test [2] was < 5.30 each time.

`CC(C)(C)OC(=O)NCCCC(NC(=O)c1ccc(O)cc1O)c1nc(-c2ccncc2)n[nH]1` (stereo not drawn) [Example 78, tert-Butyl 4-(2,4-dihydroxybenzamido)-4-(3-(pyridin-4-yl)-1H-1,2,4-triazol-5-yl)butylcarbamate]: the pIC50 in test [1] and in test [2] was > 5.30 in each case.

Take `COc1cccc(C(=O)NCc2nc(-c3ccncc3)no2)c1` [Example 3, 3-methoxy-N-((3-(pyridin-4-yl)-1,2,4-oxadiazol-5-yl)methyl)benzamide]: the pIC50 in test [1] and in test [2] was < 5.30 each time.

On to `O=C(NCc1nc(-c2ccncc2)n[nH]1)c1ccc(CO)cc1` [Example 51, 4-(Hydroxymethyl)-N-((3-(pyridin-4-yl)-1H-1,2,4-triazol-5-yl)methyl)benzamide], for which the pIC50 in test [1] and in test [2] was > 5.30 each time.

For `O=C(NCc1nnc(-c2ccnc3[nH]ccc23)o1)c1ccc(O)cc1O` [Example 76, N-((5-(1H-Pyrrolo[2,3-b]pyridin-4-yl)-1,3,4-oxadiazol-2-yl)methyl)-2,4-dihydroxybenzamide], the pIC50 in test [1] and in test [2] was > 5.30 each time.

In the case of `O=C(NCc1nc(-c2ccncc2)n[nH]1)c1nccs1` [Example 20, N-((3-(pyridin-4-yl)-1H-1,2,4-triazol-5-yl)methyl) thiazole-2-carboxamide], the pIC50 in test [1] and in test [2] was > 5.30 in each case.

`Cn1nc(-c2ccncc2)nc1CNC(=O)c1cccs1` [Example 50, N-((1-Methyl-3-(pyridin-4-yl)-1H-1,2,4-triazol-5-yl)methyl)thiophene-2-carboxamide]: the pIC50 in test [1] and in test [2] was < 5.30 each time.

For the molecule `O=C(NCc1c[nH]c(-c2ccncc2)n1)c1ccc(O)cc1O` [Example 12, 2,4-dihydroxy-N-((2-(pyridin-4-yl)-1H-imidazol-4-yl)methyl)benzamide], the negative-log IC50 (pIC50) in test [1] and in test [2] was > 5.30 throughout.

`c1ccc2c(NCc3nc(-c4ccncc4)n[nH]3)ncnc2c1` [Example 53, N-((3-(Pyridin-4-yl)-1H-1,2,4-triazol-5-yl)methyl)quinazolin-4-amine]: the pIC50 in test [1] and in test [2] was < 5.30 each time.

Take `O=C(NCc1nc(-c2ccncc2)n[nH]1)c1cccc2c1OCC2` [Example 43, N-((3-(pyridin-4-yl)-1H-1,2,4-triazol-5-yl)methyl)-2,3-dihydrobenzofuran-7-carboxamide]: the pIC50 in test [1] is < 5.30; in test [2], > 5.30.

Consider `O=S(=O)(NCc1nc(-c2ccncc2)n[nH]1)c1ccc(OCc2ccccc2)cc1` [Example 54, 4-(Benzyloxy)-N-((3-(pyridin-4-yl)-1H-1,2,4-triazol-5-yl)methyl)benzenesulfonamide], for which the pIC50 in test [1] and in test [2] was < 5.30 in each case.

For `COC(=O)c1ccc(C(=O)NCc2nc(-c3ccncc3)n[nH]2)cc1` [Example 30, Methyl 4-((3-(pyridin-4-yl)-1H-1,2,4-triazol-5-yl)methylcarbamoyl)benzoate], the pIC50 in test [1] and in test [2] was > 5.30 each time.

Turning to `O=C(NCc1ncc(-c2ccncc2)s1)c1cccs1` [Example 1, N-((5-(pyridin-4-yl)thiazol-2-yl)methyl)thiophene-2-carboxamide], the negative logarithm of the IC50 (pIC50) in test [1] and in test [2] was < 5.30 throughout.

For the molecule `COc1ccc(C(=O)NCc2nc(-c3ccncc3)n[nH]2)cc1` [Example 19, 4-methoxy-N-((3-(pyridin-4-yl)-1H-1,2,4-triazol-5-yl)methyl)benzamide], the pIC50 in test [1] and in test [2] was > 5.30 in each case.

On to `Cc1cccc(C(=O)NCc2c[nH]c(-c3ccncc3)n2)c1O` [Example 13, 2-hydroxy-3-methyl-N-((2-(pyridin-4-yl)-1H-imidazol-4-yl)methyl)benzamide], for which the pIC50 in test [1] and in test [2] was < 5.30 throughout.

Consider `COc1cccc(C(=O)NCc2nc(-c3c[nH]c4ncccc34)cs2)c1` [Example 74, N-((4-(1H-pyrrolo[2,3-b]pyridin-3-yl)thiazol-2-yl)methyl)-3-methoxybenzamide], for which the pIC50 in test [1] and in test [2] was > 5.30 in each case.

`O=C(c1cccs1)N1CCCC1c1nc(-c2ccncc2)n[nH]1` (stereo not drawn) [Example 67, (2-(3-(pyridin-4-yl)-1H-1,2,4-triazol-5-yl)pyrrolidin-1-yl) (thiophen-2-yl)methanone]: the pIC50 in test [1] and in test [2] was < 5.30 each time.

As to `Cc1cccc(C(=O)NCc2cc(-c3ccncc3)n[nH]2)c1O` [Example 10, 2-hydroxy-3-methyl-N-((3-(pyridin-4-yl)-1H-pyrazol-5-yl)methyl)benzamide], the pIC50 in test [1] and in test [2] was > 5.30 throughout.

Consider `O=C(NCc1nc(-c2ccncc2)co1)c1ccc(O)cc1O` [Example 8, 2,4-dihydroxy-N-((4-(pyridin-4-yl)oxazol-2-yl)methyl)benzamide], for which the pIC50 in test [1] and in test [2] was > 5.30 in each case.

`CS(=O)(=O)Nc1cccc(C(=O)NCc2nc(-c3ccncc3)n[nH]2)c1` [Example 21, 3-(methylsulfonamido)-N-((3-(pyridin-4-yl)-1H-1,2,4-triazol-5-yl)methyl)benzamide]: the pIC50 in test [1] and in test [2] was < 5.30 each time.

On to `O=C(NCc1cc(-c2ccncc2)n[nH]1)c1ccc(O)cc1O` [Example 9, 2,4-dihydroxy-N-((3-(pyridin-4-yl)-1H-pyrazol-5-yl)methyl)benzamide], for which the pIC50 in test [1] and in test [2] was > 5.30 each time.

`CC(C)(C)OC(=O)NC[C@H](NC(=O)c1ccc(O)cc1O)c1nc(-c2ccncc2)n[nH]1` [Example 79, (S)-tert-Butyl 2-(2,4-dihydroxybenzamido)-2-(3-(pyridin-4-yl)-1H-1,2,4-triazol-5-yl)ethylcarbamate]: the pIC50 in test [1] and in test [2] was > 5.30 each time.

Take `CCc1cccc(C(=O)NCc2nc(-c3ccncc3)n[nH]2)c1O` [Example 52, 3-Ethyl-2-hydroxy-N-((3-(pyridin-4-yl)-1H-1,2,4-triazol-5-yl)methyl)benzamide]: the pIC50 in test [1] and in test [2] was > 5.30 each time.

Take `c1ccc(COc2ccc(CNCc3nc(-c4ccncc4)n[nH]3)cc2)cc1` [Example 56, N-(4-(Benzyloxy)benzyl)-1-(3-(pyridin-4-yl)-1H-1,2,4-triazol-5-yl)methanamine]: the pIC50 in test [1] and in test [2] was < 5.30 each time.

Take `Clc1ccc(SCc2nc(-c3ccncc3)n[nH]2)cc1` [Example 80]: the pIC50 in test [1] and in test [2] was > 5.30 throughout.

For `Cc1c(O)ccc(C(=O)NCc2nc(-c3ccncc3)n[nH]2)c1O` [Example 46, 2,4-Dihydroxy-3-methyl-N-((3-(pyridin-4-yl)-1H-1,2,4-triazol-5-yl)methyl)benzamide], the pIC50 in test [1] and in test [2] was > 5.30 throughout.

For `CC(C)(C)C(=O)Oc1ccc(C(=O)NCc2nc(-c3ccncc3)n[nH]2)c(OC(=O)C(C)(C)C)c1` [Example 37, 4-((3-(Pyridin-4-yl)-1H-1,2,4-triazol-5-yl)methylcarbamoyl)-1,3-phenylene bis(2,2-dimethylpropanoate)], the negative-log IC50 (pIC50) in test [1] and in test [2] was < 5.30 each time.

One may read the pIC50 as the negative decadic logarithm of the IC50, by convention in mol/L.

(Values after patent US20080021217A1, “HETEROCYCLIC INHIBITORS OF RHO KINASE” (priority 2006, published 2008).)
